Consider 11 molecules from patent US6180618A, “Propanolamine derivatives linked to bile acids, processes for their preparation, pharmaceuticals comprising these compounds, and their use” (Aventis Pharma Deutschland GmbH, priority 1998, dated 2001).

The target in this assay is T1, Na+-dependent bile acid transportation system (intestinal bile acid transportation system in the terminal small intestine) (Oryctolagus cuniculus, UniProt Q28727).
T1 construct: from tissue; host or cells: brush border membrane vesicles from the terminal 7/10 of the small intestine (ileum) of male New Zealand rabbits
T1 sequence (Q28727 1-347): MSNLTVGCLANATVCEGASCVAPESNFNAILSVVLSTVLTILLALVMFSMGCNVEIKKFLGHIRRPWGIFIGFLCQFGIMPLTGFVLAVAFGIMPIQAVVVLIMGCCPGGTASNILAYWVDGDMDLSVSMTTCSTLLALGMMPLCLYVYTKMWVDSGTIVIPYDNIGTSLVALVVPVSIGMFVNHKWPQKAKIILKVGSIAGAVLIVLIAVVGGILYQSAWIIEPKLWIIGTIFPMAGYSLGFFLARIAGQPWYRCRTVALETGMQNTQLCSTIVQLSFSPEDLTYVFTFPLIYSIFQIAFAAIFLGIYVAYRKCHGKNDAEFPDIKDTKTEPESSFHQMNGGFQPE
Briefly: Inhibition of Na+-dependent [3H]-taurocholate uptake in brush border membrane vesicles of the ileum of rabbits. The format is biochemical. As to conditions: quotient of IC50Na of reference taurochenedeoxycholate (TCDC) and IC50Na of test substance; rabbit ileum brush border membrane vesicles; 50 μM taurocholate. Here is the method: Biological testing of the compounds of the present invention was carried out by determining the inhibition of [^3 H]-taurocholate uptake in brush border membrane vesicles of the ileum of rabbits. The inhibition test was carried out as follows:
1. Preparation of brush border membrane vesicles from the ileum of rabbits
Preparation of brush border membrane vesicles from the intestinal cells of the small intestine was carried out by the so-called Mg^2+ precipitation method. Male New Zealand rabbits (2 to 2.5 kg of body weight) were sacrificed by intravenous injection of 0.5 ml of T61®, an aqueous solution of 2.5 mg of tetracaine HCl, 100 mg of embutramide and 25 mg of mebezonium iodide. The small intestine was removed and rinsed with ice-cold physiological saline solution. The terminal 7/10 of the small intestine (measured in the oral-rectal direction, i.e., the terminal ileum, which contains the active Na^+ -dependent bile acid transportation system) was used for preparation of the brush border membrane vesicles. The intestines were frozen at -80° C. in plastic bags under nitrogen.
For preparation of the membrane vesicles, the frozen intestines were thawed at 30° C. in a water-bath. The mucosa was scraped off and suspended in 60 ml of ice-cold 12 mM TRIS/HCl buffer (pH 7.1)/300 mM mannitol, 5 mM EGTA/10 mg/l of phenylmethylsulfonyl fluoride/1 mg/l of trypsin inhibitor from soybeans (32 U/mg)/0.5 mg/l of trypsin inhibitor from the bovine lung (193 U/mg)/5 mg/l of bacitracin. After dilution to 300 ml with ice-cold distilled water, the mixture was homogenized with an Ultraturrax (18-rod, IKA Werk Staufen, Germany) at 75% of the maximum for 3 minutes, while cooling with ice. After addition of 3 ml of 1 M MgCl2 solution (final concentration 10 mM), the mixture was left to stand at 0° C. for exactly 1 minute. By addition of Mg^2+, the cell membranes aggregated, and precipitated with the exception of the brush border membranes. After centrifugation at 3000× g (5000 rpm, SS-34 rotor) for 15 minutes, the precipitate was discarded and the supernatant, which contained the brush border membrane, was centrifuged at 48,000× g (20,000 rpm, SS-34 rotor) for 30 minutes. The supernatant was discarded and the precipitate was rehomogenized in 60 ml of 12 mM TRIS/HCl buffer (pH 7.1)/60 mM mannitol, 5 mM EGTA with a Potter Elvejhem homogenizer (Braun, Melsungen, 900 rpm, 10 strokes). After addition of 0.1 ml of 1 M MgCl2 solution and an incubation time of 15 minutes at 0° C., the mixture was centrifuged again at 3000× g for 15 minutes. The supernatant was then centrifuged again at 48,000× g (20,000 rpm, SS-34 rotor) for 30 minutes. The precipitate was taken up in 30 ml of 10 mM TRIS/HEPES buffer (pH 7.4)/300 mM mannitol and resuspended homogeneously by 20 strokes in a Potter Elvejhem homogenizer at 1000 rpm. After centrifugation at 48,000× g (20,000 rpm, SS-34 rotor) for 30 minutes, the precipitate was taken up in 0.5 to 2 ml of TRIS/HEPES buffer (pH 7.4)/280 mM mannitol (final concentration 20 mg/ml) and resuspended with the aid of a tuberculin syringe with a 27-gauge needle. The vesicles were either used directly for transportation studies after the preparation or stored at -196° C. in 4 mg portions in liquid nitrogen.
2. Inhibition of the Na^+ -dependent [^3 H]taurocholate uptake in brush border membrane vesicles of the ileum
The uptake of substrates in the brush border membrane vesicles described above was determined by means of the so-called membrane filtration technique. 10 μl of the vesicle suspension (100 μg of protein) were pipetted as drops onto the wall of a polystyrene incubation tube (11×70 mm), which contained the incubation medium with the corresponding ligands (90 μl). […]
In the case of `CC(CCC(=O)O)C1CCC2C3C(O)CC4CC(NC(=O)CCC(=O)NC(CCCCNC(=O)OC(C)(C)C)C(=O)Nc5ccccc5C(Nc5ccccn5)C(c5ccccn5)C(O)c5ccccc5)CCC4(C)C3CC(O)C12C` (centres unmarked) [Example 1j], the “IC5ONa -TCDC (μmol)/ IC50Na -compound (μmol)” value (shortened to “IC5ONa -TCDC (μmol)/ IC50Na”) was 1.51. With `CC(CCC(=O)NCCS(=O)(=O)O)C1CCC2C3C(O)CC4CC(NC(=O)CCC(=O)NC(CCCCNC(=O)OC(C)(C)C)C(=O)Nc5ccccc5C(Nc5ccccn5)C(c5ccccn5)C(O)c5ccccc5)CCC4(C)C3CC(O)C12C` (centres unmarked) [Example 1k], the “IC5ONa -TCDC (μmol)/ IC50Na” value is 1.59. To `COC(=O)CCC(C)C1CCC2C3C(O)CC4CC(NC(=O)CCC(=O)NC(Cc5ccccc5)C(=O)N5CCCC5C(=O)Nc5ccccc5C(Nc5ccccn5)C(c5ccccn5)C(O)c5ccccc5)CCC4(C)C3CC(O)C12C` (centres unmarked) [Example 2d] belongs 0.56. To `CC(CCC(=O)O)C1CCC2C3C(O)CC4CC(NC(=O)CCC(=O)NC(Cc5ccccc5)C(=O)N5CCCC5C(=O)Nc5ccccc5C(Nc5ccccn5)C(c5ccccn5)C(O)c5ccccc5)CCC4(C)C3CC(O)C12C` (centres unmarked) [Example 2e] belongs 1.96; to `C[C@H](CCC(=O)Nc1ccccc1[C@@H](Nc1ccccn1)[C@H](c1ccccn1)[C@H](O)c1ccccc1)[C@H]1CC[C@H]2[C@@H]3[C@H](O)C[C@@H]4C[C@H](O)CC[C@]4(C)[C@H]3C[C@H](O)[C@]12C` [Example 4], 0.50; to `C[C@H](CCC(=O)O)[C@H]1CC[C@H]2[C@@H]3[C@H](O)C[C@@H]4C[C@@H](NC(=O)CCC(=O)Nc5ccc(C(Nc6ccccn6)C(c6ccccn6)C(O)c6ccccc6)cc5)CC[C@]4(C)[C@H]3C[C@H](O)[C@]12C` (some centres unmarked) [Example 7], 0.15. To `CC(CCC(=O)O)C1CC[C@H]2[C@@H]3[C@H](O)C[C@@H]4C[C@@H](NC(=O)CCC(=O)Nc5ccccc5C(Nc5ccccn5)C(c5ccccn5)C(O)c5ccccc5)CC[C@]4(C)[C@H]3C[C@H](O)[C@]12C` (some centres unmarked) [Example 8] belongs 0.91. Take `COC(=O)CCC(C)C1CCC2C3C(O)CC4CC(NC(=O)CCC(=O)NCCCCC(N)C(=O)Nc5ccccc5C(Nc5ccccn5)C(c5ccccn5)C(O)c5ccccc5)CCC4(C)C3CC(O)C12C` (centres unmarked) [Example 9]: the “IC5ONa -TCDC (μmol)/ IC50Na” value is on record as 2.02. `CC(CCC(=O)O)C1CCC2C3C(O)CC4CC(NC(=O)CCC(=O)NCCCCC(N)C(=O)Nc5ccccc5C(Nc5ccccn5)C(c5ccccn5)C(O)c5ccccc5)CCC4(C)C3CC(O)C12C` (centres unmarked) [Example 10]: the “IC5ONa -TCDC (μmol)/ IC50Na” value was found to be 1.63. On to `CC(CCC(=O)O)C1CCC2C3C(O)CC4CC(NC(=O)CCC(=O)NC(CCCCNC(=O)OC(C)(C)C)C(=O)Nc5ccccc5C(Nc5ccccn5)C(c5ccccn5)C(O)c5ccccc5)CCC4(C)C3CC(O)C12C` (centres unmarked) [Example 12], for which the “IC5ONa -TCDC (μmol)/ IC50Na” value was 2.58. On to `CC(CCC(=O)NCC(=O)O)C1CCC2C3C(O)CC4CC(NC(=O)CCC(=O)NC(CCCCNC(=O)OC(C)(C)C)C(=O)Nc5ccccc5C(Nc5ccccn5)C(c5ccccn5)C(O)c5ccccc5)CCC4(C)C3CC(O)C12C` (centres unmarked) [Example 14], for which the “IC5ONa -TCDC (μmol)/ IC50Na” value was 1.52.
